Laboratory results published in publication PMC4880976, “Pharmacologic rationale for the NK1R antagonist, aprepitant as adjunctive therapy in HIV” (Journal of Translational Medicine, 2016).

Legend:
[1] = 1 μM in DMEM 10 % FBS or MDM cultures, days 0-7
Protocol: A validated, liquid chromatography-tandem mass spectrometry method was used for the quantification of aprepitant plasma concentration in HIV infected animals and tissue culture media. The method utilized a simple sample-preparation procedure of protein precipitation with methanol. Chromatographic separation was performed on a reversed phase C8 column (Hypersil Gold, 50 mm × 2.1 mm, 3 μm) using a mobile phase composed of acetonitrile and water in 0.5 % formic acid through gradient elution. Electro-spray ionization in positive mode was incorporated in the tandem mass spectrometric detection. The lower limit of quantitation of aprepitant in human plasma was 1 ng/mL.
GAG expression in control (non-treated) cultures were designated as 100 %; *p < 0.0001 between all groups including control were obtained through one-way ANOVA with post-test analysis by Bonferroni’s Multiple Comparison Test indicating significant difference between all groups in pair wise comparison. b Aprepitant added to DMEM 10 % FBS media or MDM cultures at a concentration of 1 μM (0.53 μg/ml) on day 0 and measured on days 0, 1, 2, 3 and 7. Results are presented as mean ± SD for three independent experiments

[2] = test system: PD-1 expression on CD3+CD4+ cells; assay: PD-1 expression on CD4+ T-cells in PBMC, flow cytometry; type: cell-based, human
Protocol: (§1) For cytokine and PD-1 assessment experiments freshly isolated peripheral blood mononuclear cell (PBMC) purchased from the Human Immunology Core Facility of The University of Pennsylvania School of Medicine (Philadelphia, PA) were cultured in RPMI medium supplemented with 10 % FBS overnight. Some cultures were treated with SP (10 µM) aprepitant (10 µM) or DMSO (0.001 %, vehicle for aprepitant). Cytokine concentrations were measured in supernatants using multiplex assay 24 h after SP/aprepitant treatment (see below). For PD-1 expression SP and aprepitant were added at day 0 and PD-1 expression was monitored daily for up to 8 days using flow cytometry.
Fig. 6 Aprepitant blocks SP induced PD-1 expression on CD4+ T-cells. PBMC were treated for 7 days with SP and aprepitant as indicated. PD-1 expression was measured by flow cytometry on CD3+CD4+ cells and expressed as percentage of PD-1 positive cells. a Results from representative experiment are shown. First two columns show gaiting strategy. […] Median (spread): control 14.7 (11.1), SP treated 38.4 (60.6), SP + aprepitant treated 7.8 (6.0) TEXT PRINTED IN THE PICTURE: (a) SP: PD1+ 67.1 | (a) SP + aprepitant: PD1+ 9.53 DOUBTS OF THE COPYIST ABOUT THIS PICTURE: SP + aprepitant, PD1+ 9.53: the sign after PD1 looks like '+' or '−' because it touches the gate line / SP + aprepitant, 9.53: small print, so the digits 9, 5 and 3 are not fully certain / The rows 'no staining' (PD1+ 0.079) and 'control' (PD1+ 11.4) were left out because they are not substances

[3] = in vivo; settings: male, rhesus monkey
Protocol: A pilot study in two groups of three male Rhesus macaques (Macaca mulatta) was conducted to assess the exposure attained following once daily dosing of 80 and 125 mg aprepitant administered orally for 14 days (n = 3 per dose group). The 80 and 125 mg doses correlate with the human doses recommended for CINV patients (125 mg orally 1 h prior to chemotherapy treatment (day 1) and 80 mg orally once daily in the morning on days 2 and 3). On a weight basis these doses represent approximately 8 and 12.5 mg/kg (weight range, 7–12 kg for the rhesus) compared to 1.14 and 1.79 mg/kg human doses (assuming a 70 kg person). […] Blood was collected for dense PK sampling on days 1, 7 and 14 and trough samples were collected prior to dosing on days 3, 5, 7, 11 and 13.
Blood was collected for PK sampling on days 1, 7 and 14 and trough samples were collected prior to dosing on days 3, 5, 7, 11 and 13. Viral loads were assessed at 2 and 4 weeks after infection and monthly thereafter. […] Behavioral data were collected using video cameras installed on walls opposite the caging. Videotaping was scheduled to avoid disruptions in daily feedings, routine husbandry and research procedures. Data were collected pre-infection, 2 and 4 weeks post-infection and monthly thereafter. Videotaped recordings were analyzed using Observer XT® (Noldus IT). Animals were sacrificed and necropsied after 1 year.

[4] = test system: human PBMC; assay: SP dependent cytokine and chemokine production by PBMC, multiplex assay; type: cell-based; settings: aprepitant 10 µM with SP 10 µM, 24 h
Protocol: as §1
Concentrations of pro-inflammatory cytokines and chemokines in supernatants of human PBMC were measured using human Cytokine/Chemokine Magnetic Bead Panel—Premixed 30 Plex, HCYTMAG-60K-PX30 (Millipore, Billerica, MA, USA) as recommended by the manufacturers.
Fig. 5 SP dependent up regulation of cytokine and chemokine production by human PBMC* is inhibited by aprepitant. *Freshly isolated PBMC from normal donors were incubated for 24 h with SP and/or Aprepitant (10 µM each) as indicated. Control cultures were either left untreated of incubated with DMSO (vehicle for aprepitant). Pro-inflammatory markers were measured in supernatants using MILLIPORE Human Cytokine/Chemokine Magnetic Bead Panel.

C[C@@H](O[C@H]1OCCN(Cc2n[nH]c(=O)[nH]2)[C@H]1c1ccc(F)cc1)c1cc(C(F)(F)F)cc(C(F)(F)F)c1 [aprepitant]
degradation in culture media [1]: little or no degradation
percentage of PD-1 positive CD4 cells, median (spread) ([2]; SP + aprepitant treated, 7 days, five experiments, control 14.7 (11.1)): 7.8 (6.0) %
effect on SP induced PD-1 expression ([2]; aprepitant with SP): blocked
Kp [3]: 0.0005 to 0.008
decline in trough exposure between days 13 and 14 (extent of induction) [3]: approximately 32.5%
trough plasma concentration reaches steady state [3]: ≤ 10 days
effect on SP induced cytokine and chemokine production [4]: blocked
